Laboratory results reported in patent US20130171098A1, “Cyclopropyl Fused Indolobenzazepine HCV NS5B Inhibitors” (priority 2006, published 2013).
Read-outs that look alike come from different tables or passages of the source.

How the values were obtained:
[1] = target: T1, HCV NS5B RdRp genotype 1b (Hepatitis C virus genotype 1b, UniProt Q9WMX2); assay: HCV NS5B RdRp enzyme assay (standard / modified); type: biochemical
T1 construct: The protein was expressed with an 18 amino acid C-terminal truncation to enhance the solubility; made in house; host or cells: E. coli BL21(DE3), pET21a vector
Description: HCV NS5B RdRp Cloning, Expression, and Purification.
The cDNA encoding the NS5B protein of HCV, genotype 1b, was cloned into the pET21a expression vector. The protein was expressed with an 18 amino acid C-terminal truncation to enhance the solubility. The E. coli competent cell line BL21(DE3) was used for expression of the protein. Cultures were grown at 37° C. for ˜4 hours until the cultures reached an optical density of 2.0 at 600 nm. The cultures were cooled to 20° C. and induced with 1 mM IPTG. Fresh ampicillin was added to a final concentration of 50 μg/ml and the cells were grown overnight at 20° C.
The lysis buffer consisted of 20 mM Tris-HCl, pH 7.4, 500 mM NaCl, 0.5% triton X-100, 1 mM DTT, 1 mM EDTA, 20% glycerol, 0.5 mg/ml lysozyme, 10 mM MgCl2, 15 ug/ml deoxyribonuclease I, and Complete TM protease inhibitor tablets (Roche). After addition of the lysis buffer, frozen cell pellets were resuspended using a tissue homogenizer. To reduce the viscosity of the sample, aliquots of the lysate were sonicated on ice using a microtip attached to a Branson sonicator. The sonicated lysate was centrifuged at 100,000×g for 1 hr at 4° C. and filtered through a 0.2 μm filter unit (Corning).
The protein was purified using two sequential chromatography steps: Heparin sepharose CL-6B and polyU sepharose 4B (Pharmacia). The chromatography buffers were identical to the lysis buffer but contained no lysozyme, deoxyribonuclease I, MgCl2 or protease inhibitor and the NaCl concentration of the buffer was adjusted according to the requirements for charging the protein onto the column. Each column was eluted with a NaCl gradient which varied in length from 5-50 column volumes depending on the column type. […] The enzyme was aliquoted and stored at −80° C.
Standard HCV NS5B RdRp Enzyme Assay.
HCV RdRp genotype 1b assays were run in a final volume of 60 μl in 96 well plates (Corning 3600). The assay buffer is composed of 20 mM Hepes, pH 7.5, 2.5 mM KCl, 2.5 mM MgCl2, 1 mM DTT, 1.6 U RNAse inhibitor (Promega N2515), 0.01 mg/ml BSA (Sigma B6917), and 2% glycerol. All compounds were serially diluted (3-fold) in DMSO and diluted further in water such that the final concentration of DMSO in the assay was 2%. HCV RdRp genotype 1b enzyme was used at a final concentration of 28 nM. A polyA template was used at 6 nM, and a biotinylated oligo-dT12 primer was used at 180 nM final concentration. Template was obtained commercially (Amersham 27-4110). Biotinylated primer was prepared by Sigma Genosys. 3H-UTP was used at 0.6 μCi (0.29 μM total UTP). Reactions were initiated by the addition of enzyme, incubated at 30° C. for 60 min, and stopped by adding 25 μl of 50 mM EDTA containing SPA beads (4 μg/μl, Amersham RPNQ 0007). Plates were read on a Packard Top Count NXT after >1 hr incubation at room temperature.
Modified HCV NS5B RdRp Enzyme Assay.
A modified enzyme assay was performed essentially as described for the standard enzyme assay except for the following: The biotinylated oligo dT12 primer was precaptured on streptavidin-coated SPA beads by mixing primer and beads in assay buffer and incubating at room temperature for one hour. Unbound primer was removed after centrifugation. The primer-bound beads were resuspended in 20 mM Hepes buffer, pH 7.5 and used in the assay at final concentrations of 20 nM primer and 0.67 μg/μl beads. Order of addition in the assay: enzyme (1.75 nM) was added to diluted compound followed by the addition of a mixture of template (0.36 nM), 3H-UTP (0.6 μCi, 0.29 μM), and primer-bound beads, to initiate the reaction; concentrations given are final. Reactions were allowed to proceed for 4 hours at 30° C.
IC50 values for compounds were determined using seven different [I].

HCV replicon cells = assay: HCV replicon FRET / luciferase assay; type: cell-based, Hepatitis C virus
Description: The HCV FRET screening assay was performed in 96-well cell culture plates. The FRET peptide (Anaspec, Inc.) (Taliani et al., Anal. Biochem. 1996, 240, 60-67) contains a fluorescence donor, EDANS, near one end of the peptide and an acceptor, DABCYL, near the other end. The fluorescence of the peptide is quenched by […] resonance energy transfer (RET) between the donor and the acceptor, but as the NS3 protease cleaves the peptide the products are released from RET quenching and the fluorescence of the donor becomes apparent. The assay reagent was made as follows: 5× cell Luciferase cell culture lysis reagent from Promega (#E153A) diluted to 1× with dH2O, NaCl added to 150 mM final, the FRET peptide diluted to 20 μM final from a 2 mM stock.
To prepare plates, HCV replicon cells, with or without a Renilla luciferase reporter gene, were trypsinized and plated in a 96-well plate with titrated test compounds added in columns 3 through 12; columns 1 and 2 contained a control compound (HCV control inhibitor), and the bottom row contained cells with DMSO only. The plates were then placed in a CO2 incubator at 37° C.
Subsequent to addition of the test compounds described above (FRET Assay Preparation), at various times the plate was removed and Alamar blue solution (Trek Diagnostics, #00-100) was added to measure cellular toxicity. After reading in a Cytoflour 4000 instrument (PE Biosystems), plates were rinsed with PBS and then used for FRET assay by the addition of 30 ul of the FRET peptide assay reagent described above (FRET Assay Preparation) per well. The plate was then placed into the Cytoflour 4000 instrument which had been set to 340 excite/490 emission, automatic mode for up to 20 cycles and the plate read in a kinetic mode. Typically, the signal to noise using an endpoint analysis after the reads was at least three-fold. Alternatively, after Alamar blue reading, plates were rinsed with PBS, then used for luciferase assay using the Promega Dual-Glo Luciferase Assay System or the Promega EnduRen Live Cell Substrate assay.
Compound analysis was performed by quantification of the relative HCV replicon inhibition and the relative cytotoxicity values. To calculate cytoxicity values, the average Alamar Blue fluorescence signals from the control wells were set as 100% non-toxic. The individual signals in each of the compound test wells were then divided by the average control signal and multiplied by 100% to determine […]. To calculate the HCV replicon inhibition values, an average background value was obtained from the two wells containing the highest amount of HCV control inhibitor at the end of the assay period. These numbers were similar to those obtained from naïve Huh-7 cells. The background numbers were then subtracted from the average signal obtained from the control wells and this number was used as 100% activity. The individual signals in each of the compound test wells were then divided by the averaged control values after background subtraction and multiplied by 100% to determine percent activity. […] The two numbers generated for the compound plate, percent cytoxicity and percent activity, were used to determine compounds of interest for further analysis.

[2] = HCV NS5B RdRp genotype 1b enzyme, read-out: IC50
[3] = Hepatitis C virus, HCV replicon cells, FRET or luciferase activity, read-out: EC50

T1 sequence (Q9WMX2 2420-2992): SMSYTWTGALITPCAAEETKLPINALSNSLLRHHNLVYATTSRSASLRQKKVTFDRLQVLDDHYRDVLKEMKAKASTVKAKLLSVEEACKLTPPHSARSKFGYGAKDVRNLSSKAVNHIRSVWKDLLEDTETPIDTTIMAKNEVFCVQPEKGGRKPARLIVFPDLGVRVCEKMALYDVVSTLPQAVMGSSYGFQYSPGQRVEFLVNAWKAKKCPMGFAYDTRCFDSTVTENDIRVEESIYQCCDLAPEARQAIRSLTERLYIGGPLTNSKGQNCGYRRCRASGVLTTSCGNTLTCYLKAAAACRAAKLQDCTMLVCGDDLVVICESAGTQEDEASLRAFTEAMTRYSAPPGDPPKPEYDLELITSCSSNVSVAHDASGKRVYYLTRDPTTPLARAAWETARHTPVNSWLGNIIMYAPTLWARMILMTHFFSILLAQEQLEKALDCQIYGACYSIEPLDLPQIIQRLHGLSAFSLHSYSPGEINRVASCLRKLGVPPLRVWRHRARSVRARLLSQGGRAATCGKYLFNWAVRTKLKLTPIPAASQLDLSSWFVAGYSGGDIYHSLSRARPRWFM

Row | Compound | IC50 [1] | EC50 (HCV replicon cells; Hepatitis C virus) | other results
1 | COc1ccc2c(c1)C1CC1(C(=O)N1CC3CCC(C1)N3C(=O)OC(C)(C)C)Cn1c-2c(C2CCCCC2)c2ccc(C(=O)NS(=O)(=O)N(C)C)cc21 (stereo not drawn) | < 20 nM | 1 to 500 nM | –
2 | COc1ccc2c(c1)C1CC1(C(=O)N1CC3CCC(C1)N3)Cn1c-2c(C2CCCCC2)c2ccc(C(=O)NS(=O)(=O)N(C)C)cc21 (stereo not drawn) | 1 to 500 nM | 1 to 500 nM | –
3 | COc1ccc2c(c1)C1CC1(C(=O)N1C3CCC1CN(C)C3)Cn1c-2c(C2CCCCC2)c2ccc(C(=O)NS(=O)(=O)C3CC3)cc21 (stereo not drawn) | 1 to 500 nM | 1 to 500 nM | –
4 | COc1ccc2c(c1)[C@@H]1C[C@]1(C(=O)N1C3CCC1CN(C)C3)Cn1c-2c(C2CCCCC2)c2ccc(C(=O)NS(=O)(=O)N(C)C)cc21 | – | – | IC50 [1, 2]: 1 to 500 nM; EC50 (HCV replicon cells; [3]): 1 to 500 nM
5 | COc1ccc2c(c1)[C@H]1C[C@@]1(C(=O)N1[C@@H]3CC[C@H]1CN(C)C3)Cn1c-2c(C2CCCCC2)c2ccc(C(=O)NS(=O)(=O)N(C)C)cc21 | – | – | IC50 [1, 2]: 1 to 500 nM; EC50 (HCV replicon cells; [3]): 1 to 500 nM
6 | COc1ccc2c(c1)C1CC1(CN1C3CCC1CN(C)C3)Cn1c-2c(C2CCCCC2)c2ccc(C(=O)NS(=O)(=O)N(C)C)cc21 (stereo not drawn) | 1 to 500 nM | 1 to 500 nM | –
7 | COc1ccc2c(c1)C1CC1(C(=O)N1C3CCC1CN(C(=O)OCc1ccccc1)C3)Cn1c-2c(C2CCCCC2)c2ccc(C(=O)NS(=O)(=O)N(C)C)cc21 (stereo not drawn) | 1 to 500 nM | 1 to 500 nM | –
8 | COc1ccc2c(c1)C1CC1(C(=O)N1C3CCC1CN(C)C3)Cn1c-2c(C2CCCCC2)c2ccc(C(=O)NS(=O)(=O)N3CCCC3)cc21 (stereo not drawn) | 1 to 500 nM | 1 to 500 nM | –
9 | COc1ccc2c(c1)[C@@H]1CC1[C@@H](C(=O)N1C3CCC1CN(C)C3)n1c-2c(C2CCCCC2)c2ccc(C(=O)N(C)S(=O)(=O)N(C)C)cc21 (stereo partly drawn) | > 500 nM | > 40 nM | –
10 | COc1ccc2c(c1)C1CC1(C(=O)N1C3CCC1CN(C)C3)Cn1c-2c(C2CCCCC2)c2ccc(C(=O)NS(=O)(=O)C3CCCCC3)cc21 (stereo not drawn) | 1 to 500 nM | 1 to 500 nM | –
11 | CCCCS(=O)(=O)NC(=O)c1ccc2c(C3CCCCC3)c3n(c2c1)CC1(C(=O)N2C4CCC2CN(C)C4)CC1c1cc(OC)ccc1-3 (stereo not drawn) | 1 to 500 nM | 1 to 500 nM | –
12 | CCC(C)S(=O)(=O)NC(=O)c1ccc2c(C3CCCCC3)c3n(c2c1)CC(C(=O)N1C2CCC1CN(C)C2)=Cc1cc(OC)ccc1-3 (stereo not drawn) | 1 to 500 nM | 1 to 500 nM | –
13 | CCC(CC)S(=O)(=O)NC(=O)c1ccc2c(C3CCCCC3)c3n(c2c1)CC1(C(=O)N2C4CCC2CN(C)C4)CC1c1cc(OC)ccc1-3 (stereo not drawn) | 1 to 500 nM | > 110 nM | –
14 | COc1ccc2c(c1)[C@@H]1CC1(C(=O)N1C3CCC1CN(C)C3)Cn1c-2c(C2CCCCC2)c2ccc(C(=O)NS(=O)(=O)C3CCC3)cc21 (stereo partly drawn) | 1 to 500 nM | – | EC50 (HCV replicon cells; [3]): 1 to 500 nM
15 | COc1ccc2c(c1)[C@@H]1CC1(C(=O)N1C3CCC1CN(C)C3)Cn1c-2c(C2CCCCC2)c2ccc(C(=O)NS(=O)(=O)CC(C)C)cc21 (stereo partly drawn) | 1 to 500 nM | – | EC50 (HCV replicon cells; [3]): 1 to 500 nM
16 | COc1ccc2c(c1)C1CC1(C(=O)N1C3CCC1CN(C)C3)Cn1c-2c(C2CCCCC2)c2ccc(C(=O)NS(=O)(=O)CC(F)F)cc21 (stereo not drawn) | 1 to 500 nM | 1 to 500 nM | –
17 | COc1ccc2c(c1)C1CC1(C(=O)N1C3CCC1CN(C)C3)Cn1c-2c(C2CCCCC2)c2ccc(C(=O)NS(=O)(=O)C(F)(F)F)cc21 (stereo not drawn) | 1 to 500 nM | 1 to 500 nM | –
18 | COc1ccc2c(c1)C1CC1(C(=O)N1C3CCC1CN(C)C3)Cn1c-2c(C2CCCCC2)c2ccc(C(=O)NS(=O)(=O)N(C)C)cc21 (stereo not drawn) [drawing 24] | – | – | IC50 [1, 2]: 1 to 500 nM; EC50 (HCV replicon cells; HCV replicon cells, FRET or luciferase activity, read-out: EC50): 1 to 500 nM
19 | CNS(=O)(=O)NC(=O)c1ccc2c(C3CCCCC3)c3n(c2c1)CC1(C(=O)N2C4CCC2CN(C)C4)CC1c1cc(OC)ccc1-3 (stereo not drawn) [drawing 29] | 1 to 500 nM | 1 to 500 nM | –
20 | COc1ccc2c(c1)C1CC1(C(=O)N1C3CCC1CN(C)C3)Cn1c-2c(C2CCCCC2)c2ccc(C(=O)NS(=O)(=O)N3CCC3)cc21 (stereo not drawn) [drawing 30] | – | – | IC50 ([1]; HCV NS5B RdRp genotype 1b enzyme): 1 to 500 nM; EC50 (HCV replicon cells; HCV replicon cells, FRET or luciferase activity): 1 to 500 nM
21 | COc1ccc2c(c1)C1CC1(C(=O)N1C3CCC1CN(C)C3)Cn1c-2c(C2CCCCC2)c2ccc(C(=O)NS(=O)(=O)N3CCOCC3)cc21 (stereo not drawn) [drawing 31] | 1 to 500 nM | 1 to 500 nM | –
22 | COc1ccc2c(c1)C1CC1(C(=O)N1C3CCC1CN(C)C3)Cn1c-2c(C2CCCCC2)c2ccc(C(=O)NS(=O)(=O)N3CCN(C)CC3)cc21 (stereo not drawn) [drawing 32] | 1 to 500 nM | 1 to 500 nM | –
23 | COc1ccc2c(c1)C1CC1(C(=O)N1C3CCC1CN(Cc1ccccc1)C3)Cn1c-2c(C2CCCCC2)c2ccc(C(=O)NS(=O)(=O)N(C)C)cc21 (stereo not drawn) [drawing 33] | 1 to 500 nM | 1 to 500 nM | –
24 | COc1ccc2c(c1)C1CC1(C(=O)N1C3CCC1CNC3)Cn1c-2c(C2CCCCC2)c2ccc(C(=O)NS(=O)(=O)N(C)C)cc21 (stereo not drawn) [drawing 34] | 1 to 500 nM | 1 to 500 nM | –
25 | COc1ccc2c(c1)C1CC1(C(=O)N1C3CCC1CN(C(C)=O)C3)Cn1c-2c(C2CCCCC2)c2ccc(C(=O)NS(=O)(=O)N(C)C)cc21 (stereo not drawn) [drawing 35] | 1 to 500 nM | 1 to 500 nM | –
26 | CCN1CC2CCC(C1)N2C(=O)C12CC1c1cc(OC)ccc1-c1c(C3CCCCC3)c3ccc(C(=O)NS(=O)(=O)N(C)C)cc3n1C2 (stereo not drawn) [drawing 36] | 1 to 500 nM | 1 to 500 nM | –
27 | COc1ccc2c(c1)C1CC1(C(=O)N1C3CCC1CN(C(C)C)C3)Cn1c-2c(C2CCCCC2)c2ccc(C(=O)NS(=O)(=O)N(C)C)cc21 (stereo not drawn) [drawing 37] | 1 to 500 nM | 1 to 500 nM | –
